Test results taken from patent publication US20080051387A1, “TETRAHYDROPYRIDO[3,4-D]PYRIMIDINES AND RELATED ANALOGUES” (priority 2006, published 2008).

target: T1, chimeric human H3 receptor (Homo sapiens, UniProt Q9Y5N1); test: Chimeric human H3 receptor screening GTP binding assay (inhibition of histamine-stimulated GTP-gamma35S binding, Example 8); format: biochemical; settings: 1 h; assay described in Example 8; symbol "!" in column headed Ki; read-out: Ki ("!": percent inhibition of agonist-induced GTP-gammaS binding to H3)
T1 construct: rat Galpha-i2 (Gnai2, rat); made in house; host or cells: Sf9 insect cells (baculovirus); P2 membranes
Outline: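 Compound tested at 4 μM against 1 μM histamine stimulation; 125 pM GTP-gamma35S binding measured by filtration and scintillation after 60 min at room temperature. Membranes from Sf9 cells expressing chimeric human H3 plus G-protein subunits, in Tris pH 7.4/NaCl/MgCl2/GDP buffer; values are % inhibition after nonspecific subtraction.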

T1 sequence (Q9Y5N1 with tags, fused parts or gaps): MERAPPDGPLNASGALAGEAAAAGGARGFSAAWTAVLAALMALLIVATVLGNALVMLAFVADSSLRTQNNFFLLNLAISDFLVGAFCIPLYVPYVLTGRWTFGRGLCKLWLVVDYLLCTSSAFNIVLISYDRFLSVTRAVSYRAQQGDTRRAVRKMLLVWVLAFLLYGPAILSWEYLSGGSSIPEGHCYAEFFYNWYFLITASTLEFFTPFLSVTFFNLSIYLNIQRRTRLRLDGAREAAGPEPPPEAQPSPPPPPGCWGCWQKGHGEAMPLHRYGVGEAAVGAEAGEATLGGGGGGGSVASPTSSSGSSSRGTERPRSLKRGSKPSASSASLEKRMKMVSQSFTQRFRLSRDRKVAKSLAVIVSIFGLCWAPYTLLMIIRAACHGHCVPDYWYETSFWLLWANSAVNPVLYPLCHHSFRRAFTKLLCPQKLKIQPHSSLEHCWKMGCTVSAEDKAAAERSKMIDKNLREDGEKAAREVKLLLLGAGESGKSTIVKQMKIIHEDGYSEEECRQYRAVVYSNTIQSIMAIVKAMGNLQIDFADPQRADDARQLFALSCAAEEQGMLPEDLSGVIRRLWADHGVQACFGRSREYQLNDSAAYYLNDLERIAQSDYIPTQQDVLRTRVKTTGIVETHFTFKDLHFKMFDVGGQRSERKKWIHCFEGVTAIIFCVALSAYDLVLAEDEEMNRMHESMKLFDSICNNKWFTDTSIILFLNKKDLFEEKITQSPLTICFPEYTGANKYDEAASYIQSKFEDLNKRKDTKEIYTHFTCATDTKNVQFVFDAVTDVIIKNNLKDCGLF

Inhibition at 4 µM, ≥ 90%:
COc1ccc(/C=C/C(=O)N2CCc3cnc(N4CCN(C5CCC5)CC4)nc3CC2)cc1OC [Compound 560, 2-(4-cyclobutylpiperazin-1-yl)-7-[(2E)-3-(3,4-dimethoxyphenyl)prop-2-enoyl]-6,7,8,9-tetrahydro-5H-pyrimido[4,5-d]azepine]
COc1cc(/C=C/C(=O)N2CCc3cnc(N4CCN(C5CCC5)CC4)nc3CC2)ccc1OCc1ccccc1 [Compound 561, 7-{(2E)-3-[4-(benzyloxy)-3-methoxyphenyl]prop-2-enoyl}-2-(4-cyclobutylpiperazin-1-yl)-6,7,8,9-tetrahydro-5H-pyrimido[4,5-d]azepine]
O=C(/C=C/c1ccc(OCc2ccc(F)cc2)cc1)N1CCc2cnc(N3CCN(C4CCC4)CC3)nc2CC1 [Compound 562, 2-(4-cyclobutylpiperazin-1-yl)-7-[(2E)-3-{4-[(4-fluorobenzyl)oxy]phenyl}prop-2-enoyl]-6,7,8,9-tetrahydro-5H-pyrimido[4,5-d]azepine]
Cc1cccc(/C=C/C(=O)N2CCc3cnc(N4CCN(C5CCC5)CC4)nc3CC2)c1 [Compound 563, 2-(4-cyclobutylpiperazin-1-yl)-7-[(2E)-3-(3-methylphenyl)prop-2-enoyl]-6,7,8,9-tetrahydro-5H-pyrimido[4,5-d]azepine]
COc1cccc(/C=C/C(=O)N2CCc3cnc(N4CCN(C5CCC5)CC4)nc3CC2)c1 [Compound 564, 2-(4-cyclobutylpiperazin-1-yl)-7-[(2E)-3-(3-methoxyphenyl)prop-2-enoyl]-6,7,8,9-tetrahydro-5H-pyrimido[4,5-d]azepine]
COc1cc(/C=C/C(=O)N2CCc3cnc(N4CCN(C5CCC5)CC4)nc3CC2)cc(OC)c1 [Compound 565, 2-(4-cyclobutylpiperazin-1-yl)-7-[(2E)-3-(3,5-dimethoxyphenyl)prop-2-enoyl]-6,7,8,9-tetrahydro-5H-pyrimido[4,5-d]azepine]
COc1cc(/C=C/C(=O)N2CCc3cnc(N4CCN(C5CCC5)CC4)nc3CC2)cc(OC)c1OC [Compound 566, 2-(4-cyclobutylpiperazin-1-yl)-7-[(2E)-3-(3,4,5-trimethoxyphenyl)prop-2-enoyl]-6,7,8,9-tetrahydro-5H-pyrimido[4,5-d]azepine]
O=C(/C=C/c1ccc2c(c1)OCO2)N1CCc2cnc(N3CCN(C4CCC4)CC3)nc2CC1 [Compound 567, 7-[(2E)-3-(1,3-benzodioxol-5-yl)prop-2-enoyl]-2-(4-cyclobutylpiperazin-1-yl)-6,7,8,9-tetrahydro-5H-pyrimido[4,5-d]azepine]
COc1ccccc1/C=C/C(=O)N1CCc2cnc(N3CCN(C4CCC4)CC3)nc2CC1 [Compound 568, 2-(4-cyclobutylpiperazin-1-yl)-7-[(2E)-3-(2-methoxyphenyl)prop-2-enoyl]-6,7,8,9-tetrahydro-5H-pyrimido[4,5-d]azepine]
CCOc1ccccc1/C=C/C(=O)N1CCc2cnc(N3CCN(C4CCC4)CC3)nc2CC1 [Compound 569, 2-(4-cyclobutylpiperazin-1-yl)-7-[(2E)-3-(2-ethoxyphenyl)prop-2-enoyl]-6,7,8,9-tetrahydro-5H-pyrimido[4,5-d]azepine]
COc1ccc(/C=C/C(=O)N2CCc3cnc(N4CCN(C5CCC5)CC4)nc3CC2)c(OC)c1 [Compound 570, 2-(4-cyclobutylpiperazin-1-yl)-7-[(2E)-3-(2,4-dimethoxyphenyl)prop-2-enoyl]-6,7,8,9-tetrahydro-5H-pyrimido[4,5-d]azepine]
COc1ccc(/C=C/C(=O)N2CCc3cnc(N4CCN(C5CCC5)CC4)nc3CC2)c(OC)c1OC [Compound 571, 2-(4-cyclobutylpiperazin-1-yl)-7-[(2E)-3-(2,3,4-trimethoxyphenyl)prop-2-enoyl]-6,7,8,9-tetrahydro-5H-pyrimido[4,5-d]azepine]
Cc1ccccc1/C=C/C(=O)N1CCc2cnc(N3CCN(C4CCC4)CC3)nc2CC1 [Compound 572, 2-(4-cyclobutylpiperazin-1-yl)-7-[(2E)-3-(2-methylphenyl)prop-2-enoyl]-6,7,8,9-tetrahydro-5H-pyrimido[4,5-d]azepine]
COc1cccc(/C=C/C(=O)N2CCc3cnc(N4CCN(C5CCC5)CC4)nc3CC2)c1OC [Compound 573, 2-(4-cyclobutylpiperazin-1-yl)-7-[(2E)-3-(2,3-dimethoxyphenyl)prop-2-enoyl]-6,7,8,9-tetrahydro-5H-pyrimido[4,5-d]azepine]
COc1ccc(OC)c(/C=C/C(=O)N2CCc3cnc(N4CCN(C5CCC5)CC4)nc3CC2)c1 [Compound 574, 2-(4-cyclobutylpiperazin-1-yl)-7-[(2E)-3-(2,5-dimethoxyphenyl)prop-2-enoyl]-6,7,8,9-tetrahydro-5H-pyrimido[4,5-d]azepine]
COc1cc(OC)c(OC)cc1/C=C/C(=O)N1CCc2cnc(N3CCN(C4CCC4)CC3)nc2CC1 [Compound 575, 2-(4-cyclobutylpiperazin-1-yl)-7-[(2E)-3-(2,4,5-trimethoxyphenyl)prop-2-enoyl]-6,7,8,9-tetrahydro-5H-pyrimido[4,5-d]azepine]
COc1ccc(Br)cc1/C=C/C(=O)N1CCc2cnc(N3CCN(C4CCC4)CC3)nc2CC1 [Compound 576, 7-[(2E)-3-(5-bromo-2-methoxyphenyl)prop-2-enoyl]-2-(4-cyclobutylpiperazin-1-yl)-6,7,8,9-tetrahydro-5H-pyrimido[4,5-d]azepine]
Cc1ccc(C)c(/C=C/C(=O)N2CCc3cnc(N4CCN(C5CCC5)CC4)nc3CC2)c1 [Compound 577, 2-(4-cyclobutylpiperazin-1-yl)-7-[(2E)-3-(2,5-dimethylphenyl)prop-2-enoyl]-6,7,8,9-tetrahydro-5H-pyrimido[4,5-d]azepine]
O=C(/C=C/c1cccc2ccccc12)N1CCc2cnc(N3CCN(C4CCC4)CC3)nc2CC1 [Compound 578, 2-(4-cyclobutylpiperazin-1-yl)-7-[(2E)-3-(1-naphthyl)prop-2-enoyl]-6,7,8,9-tetrahydro-5H-pyrimido[4,5-d]azepine]
O=C(/C=C/c1ccccc1Cl)N1CCc2cnc(N3CCN(C4CCC4)CC3)nc2CC1 [Compound 579, 7-[(2E)-3-(2-chlorophenyl)prop-2-enoyl]-2-(4-cyclobutylpiperazin-1-yl)-6,7,8,9-tetrahydro-5H-pyrimido[4,5-d]azepine]
O=C(/C=C/c1ccccc1C(F)(F)F)N1CCc2cnc(N3CCN(C4CCC4)CC3)nc2CC1 [Compound 580, 2-(4-cyclobutylpiperazin-1-yl)-7-[(2E)-3-[2-(trifluoromethyl)phenyl]prop-2-enoyl]-6,7,8,9-tetrahydro-5H-pyrimido[4,5-d]azepine]

same assay, conditions: 1 h; assay of Example 8; symbol "!" in column headed Ki; read-out: percent inhibition of agonist-induced GTP-gammaS binding to H3

Inhibition at 4 µM, ≥ 90%:
O=C(/C=C/c1ccc(Cl)cc1Cl)N1CCc2cnc(N3CCN(C4CCC4)CC3)nc2CC1 [Compound 581, 2-(4-cyclobutylpiperazin-1-yl)-7-[(2E)-3-(2,4-dichlorophenyl)prop-2-enoyl]-6,7,8,9-tetrahydro-5H-pyrimido[4,5-d]azepine]
O=C(/C=C/c1ccccc1Br)N1CCc2cnc(N3CCN(C4CCC4)CC3)nc2CC1 [Compound 582, 7-[(2E)-3-(2-bromophenyl)prop-2-enoyl]-2-(4-cyclobutylpiperazin-1-yl)-6,7,8,9-tetrahydro-5H-pyrimido[4,5-d]azepine]
O=C(/C=C/c1c(Cl)cccc1Cl)N1CCc2cnc(N3CCN(C4CCC4)CC3)nc2CC1 [Compound 583, 2-(4-cyclobutylpiperazin-1-yl)-7-[(2E)-3-(2,6-dichlorophenyl)prop-2-enoyl]-6,7,8,9-tetrahydro-5H-pyrimido[4,5-d]azepine]
O=C(/C=C/c1ccc(F)cc1Cl)N1CCc2cnc(N3CCN(C4CCC4)CC3)nc2CC1 [Compound 584, 7-[(2E)-3-(2-chloro-4-fluorophenyl)prop-2-enoyl]-2-(4-cyclobutylpiperazin-1-yl)-6,7,8,9-tetrahydro-5H-pyrimido[4,5-d]azepine]
O=C(/C=C/c1c(F)cccc1Cl)N1CCc2cnc(N3CCN(C4CCC4)CC3)nc2CC1 [Compound 585, 7-[(2E)-3-(2-chloro-6-fluorophenyl)prop-2-enoyl]-2-(4-cyclobutylpiperazin-1-yl)-6,7,8,9-tetrahydro-5H-pyrimido[4,5-d]azepine]
COc1ccc(/C=C/C(=O)N2CCc3cnc(N4CCN(C5CCC5)CC4)nc3CC2)c(Cl)c1OC [Compound 586, 7-[(2E)-3-(2-chloro-3,4-dimethoxyphenyl)prop-2-enoyl]-2-(4-cyclobutylpiperazin-1-yl)-6,7,8,9-tetrahydro-5H-pyrimido[4,5-d]azepine]
CCOc1ccc(Br)cc1/C=C/C(=O)N1CCc2cnc(N3CCN(C4CCC4)CC3)nc2CC1 [Compound 587, 7-[(2E)-3-(5-bromo-2-ethoxyphenyl)prop-2-enoyl]-2-(4-cyclobutylpiperazin-1-yl)-6,7,8,9-tetrahydro-5H-pyrimido[4,5-d]azepine]
COc1cc(Br)c(/C=C/C(=O)N2CCc3cnc(N4CCN(C5CCC5)CC4)nc3CC2)cc1OC [Compound 588, 7-[(2E)-3-(2-bromo-4,5-dimethoxyphenyl)prop-2-enoyl]-2-(4-cyclobutylpiperazin-1-yl)-6,7,8,9-tetrahydro-5H-pyrimido[4,5-d]azepine]
